“Also recorded” adds a separate entry of the source.
Assays:
[1] = 0.1M HCl aqueous solution (pH: 1.1); conditions: 25±2° C., up to 72 hours
[2] = purified water, pH 4.7, or adjusted to pH 1.8, 3.9 (hydrochloric acid) and 7.8 (sodium hydroxide); conditions: 25±2° C., up to 3 day
[3] = Britton-Robinson buffer solutions having pH of 2.1, 3.1, 4.0, 5.0, 6.0, 7.0 and 7.9; conditions: 40±1° C., up to 1 day
[4] = Mcllvain buffer solutions (pH: 2.0, 3.0, 4.0, 5.0, 6.0, 7.0, 8.0); conditions: 25±2° C., up to 72 hours
[5] = Britton-Robinson buffer solution (pH 7.0); conditions: 40±1° C.

Row | Substance | cleaved bond [1] | cleaved bond [2] | fragment found [2] | cleaved bond [3] | cleaved bond [4] | cleaved bond ([5]; up to 14 days) | fragment found ([5]; up to 14 days) | fragment found ([5]; up to 3 days)
1 | GSS(n-octanoyl)FLSPEHQRVQQRKESKKPPAKLQPR | hydrolytic cleavage of octanoyl group, 8 hr. | hydrolytic cleavage of octanoyl group, 1 day | Dha compound, 1 day | hydrolytic cleavage of octanoyl group, 1 day | hydrolytic cleavage of octanoyl group, 8 hr. | hydrolytic cleavage of octanoyl group of human ghrelin, major, 4 days; also recorded: β-elimination of octanoyl group of human ghrelin, major, 4 days | degradation product D = desacyl human ghrelin (3-28), 14 days; also recorded: degradation product E = [N^α—CO—C(═CH2)—OH]human ghrelin(4-28), 14 days | 
2 | [3-Dehydroalanine]human ghrelin |  |  |  |  |  |  |  | [N^α—CO—C(═CH2)—OH]human ghrelin(4-28) (2nd degradation product of Dha compound), 3 days
3 | desacylated human ghrelin |  |  |  |  |  |  | desacyl human ghrelin (3-28), major, 14 days | 
